According to patent US12486254B2, “Uracil derivatives for stimulating read-through of premature termination codons” (Southern Research Institute, priority 2022, dated 2025):
Several values for one entry are separate records, joined by “and”; a condition that tells them apart may be missing. Equal entries are not always repeated.

What was measured:
G542X#10-HBE5x5 = experiment: Read-through of a premature termination codon, G542X#10-HBE5x5 (Table 3); format: cell-based; settings: with G418
Description: (§1) The compounds shown in Table 1 were evaluated for their ability to stimulate read-through of a premature termination codon, and their respective activities are shown in Tables 2 and 3 below.

W134X-CF#14 FRT = experiment: Read-through of a premature termination codon, W134X-CF#14 FRT data, with G418; format: cell-based; settings: in presence of G418
Description: as §1

EC50 (G542X#10-HBE5x5) | EC50 (W134X-CF#14 FRT) [µM] | Structure (SMILES)
≥ 100 µM | 109 | CCn1c(=O)c(C(=O)CN(C)Cc2ccc(C(=O)NC)cc2)c(N)n(Cc2ccccc2)c1=O [1.2]
≥ 100 µM | – | CCOC(=O)C1CCN(CC(=O)c2c(N)n(Cc3ccccc3)c(=O)n(CC)c2=O)CC1 [1.6]
≥ 100 µM | – | CCn1c(=O)c(C(=O)CNC2CCOCC2)c(N)n(Cc2ccccc2)c1=O [1.10]
≥ 100 µM | – | CCn1c(=O)c(C(=O)CN2CCOCC2)c(N)n(Cc2ccccc2)c1=O [1.11]
≥ 100 µM | – | CCn1c(=O)c(C(=O)CN[C@H](C(=O)OC)C(C)C)c(N)n(Cc2ccccc2)c1=O [1.15]
≥ 100 µM | – | CCn1c(=O)c(C(=O)CN[C@@H](Cc2cnc[nH]2)C(=O)OC)c(N)n(Cc2ccccc2)c1=O [1.17]
≥ 100 µM | – | CCOC(=O)CN(CC(=O)c1c(N)n(Cc2ccccc2)c(=O)n(CC)c1=O)C(C)C [1.18, ethyl 2-((2-(6-amino-1-benzyl-3-ethyl-2,4-dioxo-1,2,3,4-tetrahydropyrimidin-5-yl)-2-oxoethyl)(isopropyl)amino)acetate]
≥ 100 µM | – | CCn1c(=O)c(C(=O)CN(C)C(C)C)c(N)n(Cc2ccccc2)c1=O [1.20]
≥ 100 µM | – | CCn1c(=O)c(C(=O)CN2CCC[C@H]2C(=O)OC)c(N)n(Cc2ccccc2)c1=O [1.23]
≥ 100 µM | – | CCn1c(=O)c(C(=O)CN(CC(N)=O)C2CC2)c(N)n(Cc2ccccc2)c1=O [1.35]
≥ 100 µM | – | CCn1c(=O)c(C(=O)CN(CC(=O)NC)C(C)C)c(N)n(Cc2ccccc2)c1=O [1.39]
≥ 100 µM | – | CCn1c(=O)c(C(=O)CN(CC(=O)N(C)C)C(C)C)c(N)n(Cc2ccccc2)c1=O [1.40]
≥ 100 µM | – | CCCNC(=O)CN(C)CC(=O)c1c(N)n(Cc2ccccc2)c(=O)n(C)c1=O [1.42]
≥ 100 µM | – | CCn1c(=O)c(C(=O)CN2CCCCC2C(N)=O)c(N)n(Cc2ccccc2)c1=O (stereo not shown) [1.48]
30 µM | – | NC(=O)C1CCCCN1CC(=O)c1c(N)n(Cc2ccccc2)c(=O)n(Cc2ccccc2)c1=O (stereo not shown) [1.50]
≥ 100 µM | – | NC(=O)C1CCCCN1CC(=O)c1c(N)n(Cc2ccccc2)c(=O)n(C2CCCCC2)c1=O (stereo not shown) [1.51]
≥ 100 µM | – | NC(=O)C1CCCCN1CC(=O)c1c(N)n(-c2ccc(F)cc2)c(=O)n(Cc2ccccc2)c1=O (stereo not shown) [1.65]
≥ 100 µM | – | CCN(CC)C(=O)C1CCCN(CC(=O)c2c(N)n(Cc3ccccc3)c(=O)n(CC)c2=O)C1 (stereo not shown) [1.66]
≥ 100 µM | – | CCn1c(=O)c(C(=O)CN2CCCCC2C(=O)N(C)C)c(N)n(Cc2ccccc2)c1=O (stereo not shown) [1.67]
62.9 µM | – | CN(C)C(=O)C1CCCCN1CC(=O)c1c(N)n(Cc2ccc(F)cc2)c(=O)n(Cc2ccc(F)cc2)c1=O (stereo not shown) [1.73]
≥ 100 µM | – | CC(C)N(CC(=O)c1c(N)n(Cc2ccc(F)cc2)c(=O)n(Cc2ccc(F)cc2)c1=O)CC(=O)N(C)C [1.74]
≥ 100 µM | – | CCn1c(=O)c(C(=O)CN2CCCCC2C(=O)N2CCOCC2)c(N)n(Cc2ccccc2)c1=O (stereo not shown) [1.87]
≥ 100 µM | – | CCn1c(=O)c(C(=O)CN2CCCCC2C(N)=O)c(N)n(Cc2ccc(F)cc2)c1=O (stereo not shown) [1.103]
25 µM | – | NC(=O)C1CCCCN1CC(=O)c1c(N)n(Cc2cccc(Cl)c2)c(=O)n(Cc2cccc(Cl)c2)c1=O (stereo not shown) [1.104]
≥ 100 µM | – | CCn1c(=O)c(C(=O)CN2CCCCC2c2nc3ccccc3n2C)c(N)n(Cc2ccccc2)c1=O (stereo not shown) [1.105]
≥ 100 µM | – | CCn1c(=O)c(C(=O)CN2CCCCC2c2nc3ccccc3[nH]2)c(N)n(Cc2ccccc2)c1=O (stereo not shown) [1.106]

EC50 (G542X#10-HBE5x5) | EC50 (W134X-CF#14 FRT) [µM] | Structure (SMILES)
≥ 100 µM | – | CCn1c(=O)c(C(=O)CN2CCCC[C@@H]2C(N)=O)c(N)n([C@H](C)c2ccccc2)c1=O [1.125]
≥ 100 µM | – | CCn1c(=O)c(C(=O)CN2CCCC[C@@H]2C(=O)N(C)C)c(N)n(Cc2ccc(F)cc2)c1=O [1.126]
≥ 100 µM | – | CCn1c(=O)c(C(=O)CN2CCCC[C@@H]2C(=O)N2CCCCC2)c(N)n(Cc2ccc(F)cc2)c1=O [1.129]
≥ 100 µM | – | CCn1c(=O)c(C(=O)CN2CCCC[C@@H]2C(=O)N2CCOCC2)c(N)n(Cc2ccc(F)cc2)c1=O [1.130]
50.5 µM | – | CCn1c(=O)c(C(=O)CN(CC(N)=O)C(C)C)c(N)n(Cc2ccc(F)cc2)c1=O [1.133]
≥ 100 µM | – | CCn1c(=O)c(C(=O)CN(CC(=O)N(C)C)C(C)C)c(N)n(Cc2ccc(F)cc2)c1=O [1.139]
≥ 100 µM | – | CCn1c(=O)c(C(=O)CN2CCCCC2C(N)=O)c(N)n(Cc2ccc(F)c(OC)c2)c1=O (stereo not shown) [1.164]
≥ 100 µM | – | CCn1c(=O)c(C(=O)CN2CCCC[C@@H]2C(=O)N2CCC(F)(F)CC2)c(N)n(Cc2ccc(F)cc2)c1=O [1.168]
≥ 100 µM | – | CCn1c(=O)c(C(=O)CN2CCCC[C@@H]2C(=O)NCC2CC2)c(N)n(Cc2ccc(F)cc2)c1=O [1.174]
73.2 µM | – | CCn1c(=O)c(C(=O)CNC(COC)c2ccccc2)c(N)n(Cc2ccc(F)cc2)c1=O (stereo not shown) [1.180]
≥ 100 µM | – | CCn1c(=O)c(C(=O)CNC(CN2CCCC2=O)c2ccccc2)c(N)n(Cc2ccc(F)cc2)c1=O (stereo not shown) [1.181]
≥ 100 µM | – | CCn1c(=O)c(C(=O)CN[C@H](C(N)=O)C(C)C)c(N)n(Cc2ccc(F)cc2)c1=O [1.187]
≥ 100 µM | – | CCn1c(=O)c(C(=O)CN(C)C)c(N)n(Cc2cc(Cl)c(F)cc2F)c1=O [1.198]
≥ 100 µM | – | CCn1c(=O)c(C(=O)CNCCC(N)=O)c(N)n(Cc2ccc(F)cc2)c1=O [1.201]
≥ 100 µM | – | CCn1c(=O)c(C(=O)CN2CCNC(=O)C2)c(N)n(Cc2ccc(F)cc2)c1=O [1.209]
≥ 100 µM | – | CCn1c(=O)c(C(=O)CN2CCCNC2=O)c(N)n(Cc2ccc(F)cc2)c1=O [1.212]
≥ 100 µM | – | CCn1c(=O)c(C(=O)CN2CCCN(C)C2=O)c(N)n(Cc2ccc(F)cc2)c1=O [1.215]
≥ 100 µM | – | CCn1c(=O)c(C(=O)CN2CCN(C)C(=O)C2)c(N)n(Cc2ccc(F)cc2)c1=O [1.216]
≥ 100 µM | – | CCn1c(=O)c(C(=O)CN2CCCC[C@@H]2C(N)=O)c(N)n(Cc2ccc(O)cc2)c1=O [1.217]
≥ 100 µM | – | NC(=O)[C@H]1CCCCN1CC(=O)c1c(N)n(Cc2ccc(F)cc2)c(=O)n(CC2CC2)c1=O [1.218]
48.5 µM | – | CCn1c(=O)c(C(=O)CN(c2cccc(C(N)=O)c2)C(C)C)c(N)n(Cc2ccc(F)cc2)c1=O [1.219]
≥ 100 µM | – | CCn1c(=O)c(C(=O)CN2CCc3cccc(C(=O)OC)c3C2)c(N)n(Cc2ccc(F)cc2)c1=O [1.220]
≥ 100 µM | – | CCn1c(=O)c(C(=O)CN2CCC(O)CC2C(N)=O)c(N)n(Cc2ccc(F)cc2)c1=O (stereo not shown) [1.221]
≥ 100 µM | – | CCn1c(=O)c(C(=O)CN2CCc3cccc(C(N)=O)c3C2)c(N)n(Cc2ccc(F)cc2)c1=O [1.222]
≥ 100 µM | – | CCn1c(=O)c(C(=O)CN2CCCc3c(C(N)=O)cccc32)c(N)n(Cc2ccc(F)cc2)c1=O [1.223]
≥ 100 µM | – | CCn1c(=O)c(C(=O)CN2CCCc3ccc(C(N)=O)cc32)c(N)n(Cc2ccc(F)cc2)c1=O [1.224]

EC50 (G542X#10-HBE5x5) | EC50 (W134X-CF#14 FRT) [µM] | Structure (SMILES)
≥ 100 µM | – | CCn1c(=O)c(C(=O)CNC2CCC(=O)NC2=O)c(N)n(Cc2ccc(F)cc2)c1=O (stereo not shown) [1.226]
≥ 100 µM | – | CCn1c(=O)c(C(=O)CNc2ccc(C)cc2)c(N)n(Cc2ccc(F)cc2)c1=O [1.227]
≥ 100 µM | – | NC(=O)C1CCCCN1CC(=O)c1c(N)n(Cc2ccc(F)cc2)c(=O)n(CCC(=O)O)c1=O (stereo not shown) [1.228]
≥ 30 µM | – | CCn1c(=O)c(C(=O)CN2CCCC[C@H]2C(N)=O)c(N)n(Cc2ccc(F)cc2)c1=O [2.1]
≥ 30 µM | – | CCn1c(=O)c(C(=O)CN2CCCC[C@@H]2C(=O)OC)c(N)n(Cc2ccc(F)cc2)c1=O [2.2]
≥ 30 µM | – | CCn1c(=O)c(C(=O)CN2CCCC[C@@H]2C(N)=O)c(N)n(Cc2ccccc2F)c1=O [2.3]
≥ 30 µM | – | CCN(CC)C(=O)[C@H]1CCCCN1CC(=O)c1c(N)n(Cc2ccc(F)cc2)c(=O)n(CC)c1=O [2.4]
≥ 30 µM | – | CCn1c(=O)c(C(=O)CN2CCCC[C@@H]2C(=O)N2CCCC2)c(N)n(Cc2ccc(F)cc2)c1=O [2.5]
≥ 30 µM | – | CCn1c(=O)c(C(=O)CN2CCCC[C@@H]2C(=O)NC)c(N)n(Cc2ccc(F)cc2)c1=O [2.6]
≥ 30 µM | – | CCn1c(=O)c(C(=O)CN2CCCC[C@@H]2C(N)=O)c(N)n(CCc2ccc(F)cc2)c1=O [2.7]
≥ 30 µM | – | CCn1c(=O)c(C(=O)CN2CCCC[C@@H]2C(N)=O)c(N)n(Cc2cccc(C)n2)c1=O [2.8]
≥ 30 µM | – | CCn1c(=O)c(C(=O)CN2CCCC[C@@H]2C(N)=O)c(N)n(Cc2cccc(F)c2)c1=O [2.10]
≥ 30 µM and 18.2 µM | – | CCn1c(=O)c(C(=O)CN2CCCC[C@@H]2C(N)=O)c(N)n(Cc2ccc(F)cc2F)c1=O [2.11]
≥ 30 µM | – | CCn1c(=O)c(C(=O)CN2CCCC[C@@H]2C(N)=O)c(N)n(Cc2ccc(C(F)F)cc2)c1=O [2.12]
≥ 30 µM | – | CC(C)n1c(=O)c(C(=O)CN2CCCC[C@@H]2C(N)=O)c(N)n(Cc2ccc(F)cc2)c1=O [2.13]
≥ 30 µM | – | CCn1c(=O)c(C(=O)CN2CCCC[C@@H]2C(N)=O)c(N)n(Cc2ccc(OC(C)C)cc2)c1=O [2.14]
≥ 30 µM | – | CCn1c(=O)c(C(=O)CN2CCCC[C@@H]2C(N)=O)c(N)n(Cc2nccn2C)c1=O [2.15]
≥ 30 µM | – | CCn1c(=O)c(C(=O)CN2CCCC[C@@H]2C(N)=O)c(N)n(-c2cccc(F)c2)c1=O [2.16]
≥ 30 µM | – | CCn1c(=O)c(C(=O)CN2CCCC[C@@H]2C(N)=O)c(N)n(Cc2ccc(F)c(Cl)c2)c1=O [2.17]
≥ 30 µM | – | CCn1c(=O)c(C(=O)CN2CCCC[C@@H]2C(N)=O)c(N)n(Cc2ccc(Cl)c(F)c2)c1=O [2.18]
≥ 30 µM | – | CCn1c(=O)c(C(=O)CN(C(C)C)C(C)(C)C(N)=O)c(N)n(Cc2ccc(F)cc2)c1=O [2.19]
≥ 30 µM | – | CCn1c(=O)c(C(=O)CN2CCCC[C@@H]2C(N)=O)c(N)n(Cc2ccc(C#N)c(F)c2)c1=O [2.20]
≥ 30 µM | – | CCn1c(=O)c(C(=O)CN2CCCC[C@@H]2C(N)=O)c(N)n(Cc2ccc(F)nc2)c1=O [2.21]
≥ 30 µM | – | CCn1c(=O)c(C(=O)CN2CCCC[C@@H]2C(N)=O)c(N)n(Cc2ccc(F)cn2)c1=O [2.22]
≥ 30 µM | – | CCn1c(=O)c(C(=O)CN2CCCC[C@@H]2C(N)=O)c(N)n(Cc2ccc(C#N)cc2F)c1=O [2.23]
≥ 30 µM | – | CCn1c(=O)c(C(=O)CN2CCCC[C@@H]2C(N)=O)c(N)n(Cc2ccc(C(F)(F)F)nc2)c1=O [2.24]
